Earlier results as cited in patent publication US8679548B2, “Active bromine containing biocidal compositions and their preparation” (Albemarle Corporation, priority 1998, dated 2014).

## BrBr [Bromine (Br2), Bromine]
  Vapor Pressure (25° C.): 214 mm

## ClBr [Bromine Chloride (BrCl), Bromine Chloride]
  Vapor Pressure (25° C.): 1800 mm
